Drawing on patent US9868746B2, “Substituted 5-aminothieno[2,3-C]pyridazine-6-carboxamide analogs as positive allosteric modulators of the muscarinic acetylcholine receptor M4” (Vanderbilt University, priority 2012, dated 2018), this text covers Emax and EC50 for 53 compounds.

pEC50: −log10 of the molar value. Some results are limits rather than exact numbers.

In the experiment the target is T1, mAChR M4 (Homo sapiens, UniProt P08173).
T1 construct: expressed in transfected cells; host or cells: CHO-K1 cells stably transfected with M4 cDNA and chimeric G-protein Gqi5
T1 sequence (P08173 1-479): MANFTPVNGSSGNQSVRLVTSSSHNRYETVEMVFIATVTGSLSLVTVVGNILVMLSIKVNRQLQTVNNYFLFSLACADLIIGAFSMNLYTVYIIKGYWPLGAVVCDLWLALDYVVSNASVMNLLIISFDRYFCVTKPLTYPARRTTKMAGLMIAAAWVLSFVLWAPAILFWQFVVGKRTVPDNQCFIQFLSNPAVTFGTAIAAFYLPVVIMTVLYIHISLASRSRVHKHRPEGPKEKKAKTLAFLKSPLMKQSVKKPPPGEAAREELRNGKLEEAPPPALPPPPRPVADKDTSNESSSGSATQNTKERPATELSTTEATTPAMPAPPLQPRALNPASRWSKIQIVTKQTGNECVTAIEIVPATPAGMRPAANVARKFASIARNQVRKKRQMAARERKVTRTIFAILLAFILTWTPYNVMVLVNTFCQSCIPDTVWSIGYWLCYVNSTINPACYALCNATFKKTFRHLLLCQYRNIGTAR
Put plainly: mAChR M4 cell-based functional assay (calcium mobilization, potentiation of EC20 acetylcholine response). The settings on record: for Emax at 30 µM: % ACh maximum at 30 μM; for pEC50: mAChR M4 cell-based functional assay, >10,000 estimated for low potency compounds without plateau, read-out: EC50.

Take `Cc1nnc2sc(C(=O)NC3CCN(S(=O)(=O)c4ccccc4)C3)c(N)c2c1C` (stereo not shown) [Example B229]: the Emax at 30 µM stood at 68% and the pEC50 is 6.26.

Take `Cc1nnc2sc(C(=O)N3CCC(NC(=O)CC4CCCCC4)C3)c(N)c2c1C` (stereo not shown) [Example B230]: the Emax at 30 µM came to 63% and the pEC50 is 5.47.

Turning to `COc1cccc(C(=O)N2CCC(NC(=O)c3sc4nnc(C)c(C)c4c3N)C2)c1` (stereo not shown) [Example B231], the Emax at 30 µM is 78% and the pEC50 was 6.64.

With `CCCCCC(=O)N1CCC(NC(=O)c2sc3nnc(C)c(C)c3c2N)C1` (stereo not shown) [Example B232], the Emax at 30 µM was determined as 77% and the pEC50 was 6.28.

For the compound `COCCOc1ccc(CNC(=O)c2sc3nnc(C)c(C)c3c2N)cc1` [Example B233], the Emax at 30 µM turned out to be 78% and the pEC50 was 7.00.

With `Cc1nnc2sc(C(=O)N3CCC(NS(=O)(=O)CCCc4ccccc4)C3)c(N)c2c1C` (stereo not shown) [Example B234], the Emax at 30 µM was 50% and the pEC50 is 6.09.

Consider `Cc1nnc2sc(C(=O)NC3CCN(C(=O)Cc4ccccc4)C3)c(N)c2c1C` (stereo not shown) [Example B235], for which the Emax at 30 µM is 72% and the negative logarithm of the EC50 (pEC50) was 6.44.

For `Cc1nnc2sc(C(=O)N3CCC(NC(=O)C4CC4)C3)c(N)c2c1C` (stereo not shown) [Example B236], the Emax at 30 µM was found to be 66% and the pEC50 was 5.30.

Turning to `Cc1nnc2sc(C(=O)N3CCC(NC(=O)C4CCCCC4)C3)c(N)c2c1C` (stereo not shown) [Example B237], the Emax at 30 µM is 62% and the negative logarithm of the EC50 (pEC50) was 5.47.

As to `Cc1nnc2sc(C(=O)NCc3ccc(N4CCCC4=O)cc3)c(N)c2c1C` [Example B238], the Emax at 30 µM amounted to 68% and the pEC50 was 6.89.

`Cc1nnc2sc(C(=O)NC3CCN(C(=O)C4CCC4)C3)c(N)c2c1C` (stereo not shown) [Example B239]: the maximal effect (Emax) at 30 µM stood at 84% and the negative logarithm of the EC50 (pEC50) is 5.92.

`Cc1nnc2sc(C(=O)N3CCC(NC(=O)c4ccccn4)C3)c(N)c2c1C` (stereo not shown) [Example B240]: the maximum response (Emax) at 30 µM stood at 53% and the pEC50 was < 5.00.

With `Cc1nnc2sc(C(=O)NC3CCN(C(=O)CC4CCCCC4)C3)c(N)c2c1C` (stereo not shown) [Example B241], the Emax at 30 µM was 64% and the pEC50 is 6.07.

Take `Cc1nnc2sc(C(=O)NC3CCN(C(=O)C4CC4)C3)c(N)c2c1C` (stereo not shown) [Example B242]: the Emax at 30 µM came to 79% and the pEC50 is 5.89.

Consider `Cc1nnc2sc(C(=O)NC3CCN(C(=O)c4c(F)cccc4F)C3)c(N)c2c1C` (stereo not shown) [Example B243], for which the Emax at 30 µM turned out to be 78% and the pEC50 was 6.23.

In the case of `Cc1ccc(S(=O)(=O)N2CCC(NC(=O)c3sc4nnc(C)c(C)c4c3N)C2)cc1` (stereo not shown) [Example B244], the Emax at 30 µM amounted to 79% and the pEC50 was 6.24.

With `Cc1nnc2sc(C(=O)NC3CCN(S(=O)(=O)c4ccc(OC(F)(F)F)cc4)C3)c(N)c2c1C` (stereo not shown) [Example B245], the Emax at 30 µM is 73% and the pEC50 was 5.92.

As to `Cc1nnc2sc(C(=O)N3CCC(NC(=O)c4ccccc4)C3)c(N)c2c1C` (stereo not shown) [Example B246], the Emax at 30 µM was determined as 78% and the pEC50 is 5.34.

As for `Cc1nnc2sc(C(=O)NC3CCN(C(=O)C4CC4c4ccccc4)C3)c(N)c2c1C` (stereo not shown) [Example B247], the Emax at 30 µM turned out to be 73% and the negative logarithm of the EC50 (pEC50) was 6.41.

For `Cc1nnc2sc(C(=O)NC34CC(C3)C4)c(N)c2c1C` [Example B248], the Emax at 30 µM is 81% and the negative logarithm of the EC50 (pEC50) is 6.20.

Consider `Cc1nnc2sc(C(=O)N3CCC(NC(=O)CCc4ccccc4)C3)c(N)c2c1C` (stereo not shown) [Example B249], for which the Emax at 30 µM was determined as 48% and the negative-log EC50 (pEC50) is < 5.00.

For `Cc1nnc2sc(C(=O)NCc3ccc4[nH]c(C)c(C)c4c3)c(N)c2c1C` [Example B250], the Emax at 30 µM worked out at 75% and the pEC50 is 6.72.

For `Cc1nnc2sc(C(=O)NCc3ccc4c(cnn4C)c3)c(N)c2c1C` [Example B251], the Emax at 30 µM stood at 79% and the pEC50 was 6.72.

Consider `Cc1nnc2sc(C(=O)NC3CCN(S(C)(=O)=O)C3)c(N)c2c1C` (stereo not shown) [Example B252], for which the Emax at 30 µM stood at 83% and the negative-log EC50 (pEC50) is 5.77.

As to `Cc1nnc2sc(C(=O)NC3CCN(S(=O)(=O)c4cccc(F)c4)C3)c(N)c2c1C` (stereo not shown) [Example B253], the Emax at 30 µM was determined as 71% and the pEC50 was 6.41.

For the compound `Cc1nnc2sc(C(=O)N3CCC(NC(=O)C4CC4c4ccccc4)C3)c(N)c2c1C` (stereo not shown) [Example B254], the Emax at 30 µM worked out at 65% and the negative-log EC50 (pEC50) was 5.85.

Turning to `Cc1nnc2sc(C(=O)NC3CCN(C(=O)c4ccc(F)c(F)c4)C3)c(N)c2c1C` (stereo not shown) [Example B255], the Emax at 30 µM turned out to be 71% and the pEC50 is 6.37.

With `Cc1nnc2sc(C(=O)N3CCC(NS(C)(=O)=O)C3)c(N)c2c1C` (stereo not shown) [Example B256], the Emax at 30 µM turned out to be 65% and the pEC50 is < 5.00.

Regarding `Cc1ccc(S(=O)(=O)NC2CCN(C(=O)c3sc4nnc(C)c(C)c4c3N)C2)s1` (stereo not shown) [Example B257], the Emax at 30 µM was 62% and the pEC50 was 5.96.

In the case of `Cc1nnc2sc(C(=O)NC3CCN(C(=O)CCCc4ccccc4)C3)c(N)c2c1C` (stereo not shown) [Example B258], the Emax at 30 µM stood at 64% and the pEC50 was 6.28.

As to `Cc1nnc2sc(C(=O)N3CC4CN(C(=O)OC(C)(C)C)CC4C3)c(N)c2c1C` (stereo not shown) [Example B259], the Emax at 30 µM was found to be 53% and the pEC50 is 6.05.

For `Cc1nnc2sc(C(=O)NCc3ccc(C(F)F)cc3)c(N)c2c1C` [Example B260], the Emax at 30 µM amounted to 81% and the negative logarithm of the EC50 (pEC50) was 7.47.

On to `Cc1nnc2sc(C(=O)NC3CCN(c4cccnc4)C3)c(N)c2c1C` (stereo not shown) [Example B261], for which the Emax at 30 µM amounted to 53% and the pEC50 was 6.21.

Turning to `Cc1nnc2sc(C(=O)N3CC(C4CCCCC4)C3)c(N)c2c1C` [Example B262], the Emax at 30 µM turned out to be 66% and the negative logarithm of the EC50 (pEC50) is 7.30.

As for `Cc1nnc2sc(C(=O)N3C[C@@H]4C[C@@H]3CN4C(=O)c3ccccc3)c(N)c2c1C` [Example B263], the Emax at 30 µM was 41% and the pEC50 was < 5.00.

Regarding `Cc1nnc2sc(C(=O)NC3CCN(c4ccccc4Cl)C3)c(N)c2c1C` (stereo not shown) [Example B264], the Emax at 30 µM stood at 71% and the pEC50 is 7.42.

`Cc1cccc(N2CCC(NC(=O)c3sc4nnc(C)c(C)c4c3N)C2)c1` (stereo not shown) [Example B265]: the maximal response (Emax) at 30 µM is 60% and the pEC50 was 6.92.

In the case of `Cc1nnc2sc(C(=O)NC3CCN(c4ccncc4)C3)c(N)c2c1C` (stereo not shown) [Example B266], the Emax at 30 µM stood at 70% and the pEC50 was 6.66.

Consider `Cc1nnc2sc(C(=O)N3C[C@@H]4C[C@@H]3CN4S(C)(=O)=O)c(N)c2c1C` [Example B267], for which the Emax at 30 µM worked out at 51% and the pEC50 was 5.29.

Turning to `Cc1nnc2sc(C(=O)NC3CCN(c4cccc(Cl)c4)C3)c(N)c2c1C` (stereo not shown) [Example B268], the maximal response (Emax) at 30 µM came out at 68% and the pEC50 is 6.74.

Take `Cc1ccccc1N1CCC(NC(=O)c2sc3nnc(C)c(C)c3c2N)C1` (stereo not shown) [Example B269]: the Emax at 30 µM worked out at 68% and the pEC50 was 6.96.

As to `Cc1nnc2sc(C(=O)N3C[C@@H]4C[C@@H]3CN4C(=O)Oc3ccccc3)c(N)c2c1C` [Example B270], the maximal response (Emax) at 30 µM was found to be 62% and the pEC50 was < 5.00.

As for `COc1ccccc1N1CCC(NC(=O)c2sc3nnc(C)c(C)c3c2N)C1` (stereo not shown) [Example B271], the Emax at 30 µM was 71% and the pEC50 was 5.52.

As for `COC1CCN(C(=O)c2sc3nnc(C)c(C)c3c2N)C1` (stereo not shown) [Example B272], the Emax at 30 µM came out at 55% and the pEC50 was < 5.00.

For `Cc1nnc2sc(C(=O)NC3CCN(c4ccc(OC(F)(F)F)cc4)C3)c(N)c2c1C` (stereo not shown) [Example B273], the Emax at 30 µM was 71% and the pEC50 is 6.64.

`Cc1nnc2sc(C(=O)NC3CCN(c4ccc(Cl)cc4)C3)c(N)c2c1C` (stereo not shown) [Example B274]: the Emax at 30 µM stood at 69% and the pEC50 is 7.39.

In the case of `Cc1nnc2sc(C(=O)N3CC(Cc4ccccc4)C3)c(N)c2c1C` [Example B275], the Emax at 30 µM was found to be 65% and the pEC50 was 6.70.

Take `Cc1nnc2sc(C(=O)NCc3ccc4c(c3)CC(=O)N4)c(N)c2c1C` [Example B276]: the Emax at 30 µM amounted to 67% and the pEC50 is 6.44.

In the case of `Cc1nnc2sc(C(=O)N3CC4CN(S(C)(=O)=O)CC4C3)c(N)c2c1C` (stereo not shown) [Example B277], the Emax at 30 µM worked out at 56% and the negative logarithm of the EC50 (pEC50) was < 5.00.

Turning to `CC(=O)N1CC2CN(C(=O)c3sc4nnc(C)c(C)c4c3N)CC2C1` (stereo not shown) [Example B278], the Emax at 30 µM was found to be 54% and the pEC50 was < 5.00.

Regarding `Cc1nnc2sc(C(=O)N3CCC(O)(c4ccccc4)C3)c(N)c2c1C` (stereo not shown) [Example B279], the Emax at 30 µM was determined as 48% and the pEC50 is 5.37.

For `Cc1nnc2sc(C(=O)N3Cc4ccccc4C3)c(N)c2c1C` [Example B280], the Emax at 30 µM is 46% and the pEC50 is 5.77.

In the case of `Cc1nnc2sc(C(=O)NC3C4CC5CC(C4)CC3C5)c(N)c2c1C` (stereo not shown) [Example B281], the Emax at 30 µM stood at 62% and the pEC50 was 5.70.
